Reference: ChEMBL document CHEMBL1155461, “Emerging targets in osteoporosis disease modification” (J Med Chem, 2010)
Blank lines part the entries; values can stand above or below the compound they belong to.

Legend:
Integrin alpha-V/beta-3 [1] = target: T1, Integrin alpha-V/beta-3 (Homo sapiens, UniProt P05106+P06756)
MC3T3-E1 [2] = experiment: Induction of osteogenesis in mouse MC3T3-E1 cells assessed as increase in osteoblast differentiation-associated ALP level at 0.03 uM; type: functional
MC3T3-E1 [3] = experiment: Induction of osteogenesis in mouse MC3T3-E1 cells assessed as increase in osteoblast differentiation-associated collagen synthesis at 0.03 uM; type: functional
MC3T3-E1 [4] = experiment: Induction of osteogenesis in mouse MC3T3-E1 cells assessed as increase in bone mineralization at 0.03 uM; type: functional
[5] = Selectivity for cathepsin K over cathepsin V
[6] = Selectivity for cathepsin K over cathepsin S
Cathepsin K = Cathepsin K (Homo sapiens, UniProt P43235); experiment: Inhibition of humanized rabbit cathepsin K
[7] = Selectivity for cathepsin K over cathepsin L
[8] = Selectivity for cathepsin K over cathepsin F
[9] = Selectivity for cathepsin K over cathepsin H
[10] = Selectivity for cathepsin K over cathepsin B
[11] = Selectivity for integrin alphaVbeta3 over integrin alphaVbeta5
Homo sapiens [12] = experiment: Antiosteoporotic activity in men with osteoporosis assessed as decrease in bone resorption-associated urinary CTX-1 level at 250 mg/kg after 10 to 14 days; type: functional; conditions: Urine
Homo sapiens [13] = experiment: Antiosteoporotic activity in men with osteoporosis assessed as decrease in bone resorption-associated serum CTX-1 level at 250 mg/kg after 10 to 14 days; type: functional, organism-based; design: dose 250 mg/kg; conditions: dose 250 mg/kg
MC3T3-E1 [14] = experiment: Induction of osteogenesis in mouse MC3T3-E1 cells assessed as increase in bone mineralization at 1 uM; type: functional
MC3T3-E1 [15] = experiment: Induction of osteogenesis in mouse MC3T3-E1 cells assessed as increase in osteoblast differentiation-associated ALP level at 0.01 uM; type: functional
[16] = target: T2, Extracellular calcium-sensing receptor (Homo sapiens, UniProt P41180)
T2 sequence (P41180 whole entry): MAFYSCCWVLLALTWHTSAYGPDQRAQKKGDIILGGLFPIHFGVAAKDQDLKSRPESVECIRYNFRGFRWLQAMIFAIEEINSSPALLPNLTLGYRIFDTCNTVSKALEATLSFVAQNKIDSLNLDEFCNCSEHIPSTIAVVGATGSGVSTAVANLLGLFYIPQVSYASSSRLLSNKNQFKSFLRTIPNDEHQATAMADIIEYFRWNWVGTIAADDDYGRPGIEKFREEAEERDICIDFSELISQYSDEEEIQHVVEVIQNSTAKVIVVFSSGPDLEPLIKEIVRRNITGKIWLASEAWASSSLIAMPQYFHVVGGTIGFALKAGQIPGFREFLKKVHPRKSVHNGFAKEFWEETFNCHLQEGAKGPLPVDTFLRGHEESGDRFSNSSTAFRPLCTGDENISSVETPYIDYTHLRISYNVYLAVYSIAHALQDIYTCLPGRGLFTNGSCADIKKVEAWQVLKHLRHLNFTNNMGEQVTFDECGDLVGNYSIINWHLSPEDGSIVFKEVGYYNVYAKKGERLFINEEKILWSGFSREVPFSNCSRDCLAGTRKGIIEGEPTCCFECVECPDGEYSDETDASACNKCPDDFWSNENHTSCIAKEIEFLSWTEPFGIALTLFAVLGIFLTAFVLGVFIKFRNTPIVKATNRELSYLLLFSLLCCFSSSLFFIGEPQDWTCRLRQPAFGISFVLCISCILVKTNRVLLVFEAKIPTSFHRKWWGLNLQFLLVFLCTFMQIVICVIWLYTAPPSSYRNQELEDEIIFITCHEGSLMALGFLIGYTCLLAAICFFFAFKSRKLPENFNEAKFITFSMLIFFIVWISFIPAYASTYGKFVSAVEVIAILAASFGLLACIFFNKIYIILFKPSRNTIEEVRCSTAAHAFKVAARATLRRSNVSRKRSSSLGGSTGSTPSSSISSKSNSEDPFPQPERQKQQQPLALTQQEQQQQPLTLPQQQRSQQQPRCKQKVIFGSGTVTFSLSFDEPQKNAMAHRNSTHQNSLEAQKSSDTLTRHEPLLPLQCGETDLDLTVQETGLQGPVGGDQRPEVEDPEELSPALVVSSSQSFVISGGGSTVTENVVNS

Integrin alpha-V/beta-3 [17] = target: T1, Integrin alpha-V/beta-3; experiment: Inhibition of integrin alpha-V-beta-3-mediated adhesion of human cells M21 cells; type: cell-based
Osteoclast [18] = experiment: Inhibition of osteoclastogenesis in RANKL-stimulated mouse osteoclast at 10 uM; type: functional
Osteoclast [19] = experiment: Inhibition of osteoclastogenesis in RANKL-stimulated mouse osteoclast at 20 uM; type: functional
[20] = Induction of osteogenesis in rat ROS 17/2.8 cells assessed as stimulation of cell proliferation at 1 nM; type: functional
Rattus norvegicus [21] = experiment: Short duration (5-10 min) elevation in PTH as Cmax in rats after 3 umol/kg intravenous dose; type: functional
Rattus norvegicus [22] = experiment: Induction of bone formation in ovariectomized rat assessed as increase in total bone mineral content at 1 mg/kg, sc administered daily for 6 weeks relative to control; type: functional; conditions: route subcutaneous
[23] = target: Prostaglandin E2 receptor EP1 subtype (Homo sapiens, UniProt P34995); experiment: Binding affinity to EP1 receptor
Homo sapiens [24] = experiment: Antiosteoporotic activity in postmenopausal woman with osteoporosis assessed as increase lumbar spine bone mineral density at 50 mg/kg; type: functional
Homo sapiens [25] = experiment: Antiosteoporotic activity in postmenopausal woman with osteoporosis assessed as decrease in bone resorption-associated serum CTX-1 level at 50 mg/kg; type: functional
Homo sapiens [26] = experiment: Antiosteoporotic activity in postmenopausal woman with osteoporosis assessed as decrease in bone resorption-associated urinary CTX-1 level at 50 mg/kg; type: functional; conditions: Urine
Homo sapiens [27] = experiment: Antiosteoporotic activity in postmenopausal woman with osteoporosis assessed as increase hip bone mineral density at 50 mg/kg; type: functional, Bone of hip region
MC3T3-E1 [28] = experiment: Induction of osteogenesis in mouse MC3T3-E1 cells assessed as increase in osteoblast differentiation-associated collagen synthesis at 0.01 uM; type: functional

T1 sequence (P05106 27-788 limits assumed): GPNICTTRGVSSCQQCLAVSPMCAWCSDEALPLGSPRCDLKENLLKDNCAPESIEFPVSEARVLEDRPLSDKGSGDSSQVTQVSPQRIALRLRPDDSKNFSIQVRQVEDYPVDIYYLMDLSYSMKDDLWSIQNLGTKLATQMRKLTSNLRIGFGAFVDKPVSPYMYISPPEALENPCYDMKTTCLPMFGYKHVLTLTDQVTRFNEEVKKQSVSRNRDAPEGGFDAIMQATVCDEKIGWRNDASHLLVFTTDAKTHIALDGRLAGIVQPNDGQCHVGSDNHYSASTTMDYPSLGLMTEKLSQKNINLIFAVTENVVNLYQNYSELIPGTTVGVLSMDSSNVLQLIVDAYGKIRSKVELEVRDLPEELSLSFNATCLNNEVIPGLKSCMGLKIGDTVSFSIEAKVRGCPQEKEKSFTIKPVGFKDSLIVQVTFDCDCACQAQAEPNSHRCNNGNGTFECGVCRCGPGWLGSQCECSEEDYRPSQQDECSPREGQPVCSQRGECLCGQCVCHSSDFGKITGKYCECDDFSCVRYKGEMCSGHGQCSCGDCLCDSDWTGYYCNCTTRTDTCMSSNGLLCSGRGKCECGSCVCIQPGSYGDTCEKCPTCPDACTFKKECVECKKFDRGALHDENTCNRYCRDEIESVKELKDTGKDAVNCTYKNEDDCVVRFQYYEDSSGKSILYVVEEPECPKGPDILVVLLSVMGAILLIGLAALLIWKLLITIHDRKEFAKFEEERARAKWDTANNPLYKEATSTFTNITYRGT
T1 sequence (P06756 31-889 limits assumed): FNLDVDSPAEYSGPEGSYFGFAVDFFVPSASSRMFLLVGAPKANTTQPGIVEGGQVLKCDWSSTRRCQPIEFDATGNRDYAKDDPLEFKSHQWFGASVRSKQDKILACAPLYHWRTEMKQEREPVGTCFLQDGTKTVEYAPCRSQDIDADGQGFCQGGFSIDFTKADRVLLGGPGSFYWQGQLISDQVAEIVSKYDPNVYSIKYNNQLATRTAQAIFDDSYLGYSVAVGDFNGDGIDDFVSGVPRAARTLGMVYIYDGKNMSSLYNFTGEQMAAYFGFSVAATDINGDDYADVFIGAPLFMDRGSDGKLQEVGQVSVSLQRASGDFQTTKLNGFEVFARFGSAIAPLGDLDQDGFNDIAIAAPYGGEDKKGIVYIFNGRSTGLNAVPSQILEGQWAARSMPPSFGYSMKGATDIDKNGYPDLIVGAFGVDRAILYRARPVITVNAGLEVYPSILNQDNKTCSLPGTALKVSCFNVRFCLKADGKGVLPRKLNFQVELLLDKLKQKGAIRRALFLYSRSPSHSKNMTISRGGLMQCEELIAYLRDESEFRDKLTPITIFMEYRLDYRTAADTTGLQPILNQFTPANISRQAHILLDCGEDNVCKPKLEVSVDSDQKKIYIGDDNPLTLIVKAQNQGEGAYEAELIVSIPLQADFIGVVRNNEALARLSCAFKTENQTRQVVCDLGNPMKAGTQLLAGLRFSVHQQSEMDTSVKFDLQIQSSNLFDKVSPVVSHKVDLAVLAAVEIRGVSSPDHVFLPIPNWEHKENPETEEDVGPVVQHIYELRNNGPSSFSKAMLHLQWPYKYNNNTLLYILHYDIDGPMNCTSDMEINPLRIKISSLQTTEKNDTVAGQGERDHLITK
T1 sequence (P06756 891-1048 limits assumed): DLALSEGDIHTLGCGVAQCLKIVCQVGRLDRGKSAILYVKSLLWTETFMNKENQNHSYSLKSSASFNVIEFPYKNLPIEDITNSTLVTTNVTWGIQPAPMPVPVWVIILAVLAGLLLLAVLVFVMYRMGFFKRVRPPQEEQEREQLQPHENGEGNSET
Sequence of Prostaglandin E2 receptor EP1 subtype (P34995 whole entry): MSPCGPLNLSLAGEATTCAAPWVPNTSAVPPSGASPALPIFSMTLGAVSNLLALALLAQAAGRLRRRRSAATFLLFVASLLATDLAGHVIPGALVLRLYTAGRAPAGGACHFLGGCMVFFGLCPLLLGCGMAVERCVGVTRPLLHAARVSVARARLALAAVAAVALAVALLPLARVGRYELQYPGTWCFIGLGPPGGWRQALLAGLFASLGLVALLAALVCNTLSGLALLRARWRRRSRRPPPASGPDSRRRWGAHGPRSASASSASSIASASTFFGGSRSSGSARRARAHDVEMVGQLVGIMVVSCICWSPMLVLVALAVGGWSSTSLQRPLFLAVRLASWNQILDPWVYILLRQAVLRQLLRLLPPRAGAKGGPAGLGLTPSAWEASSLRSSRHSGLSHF

IC50 (Integrin alpha-V/beta-3 [1]): 30 nM
Compound: COc1cc(Cl)c(/C=C2\S/C(=N/c3cccc(C(=O)O)c3)N(C)C2=O)cc1OC

Compound: C=CCc1ccc(O)c(O[C@@H]2O[C@H](CO[C@@H]3OC[C@](O)(CO)[C@H]3O)[C@@H](O)[C@H](O)[C@H]2O)c1 [MANGLIESIDE B]
Activity (MC3T3-E1 [2]): 114%
Activity (MC3T3-E1 [3]): 123%
Activity (MC3T3-E1 [4]): 118%

Selectivity ratio [5]: 1100
Selectivity ratio [6]: 4300
IC50 (Cathepsin K): 0.62 nM
Selectivity ratio [7]: 4700
Selectivity ratio [8]: 110
Selectivity ratio [9]: > 140000
Selectivity ratio [10]: > 16000
Compound: CS(=O)(=O)c1ccc(-c2cn(CC(F)(F)F)nc2[C@@H]2CCC(Cl)(Cl)C[C@H]2C(=O)NC2(C#N)CC2)cc1

Selectivity ratio [11]: 3.5
IC50 (Integrin alpha-V/beta-3 [1]): 304 nM
Compound: CC(C)(C)OC(=O)[C@@H]1C[C@H](CC(=O)O)[C@H]2CC[C@H](NC(=O)[C@@H](N)CCCNC(=N)N)C(=O)N21

Compound: CN1CCN(CCOc2cc(OC3CCOCC3)c3c(Nc4c(Cl)ccc5c4OCO5)ncnc3c2)CC1 [SARACATINIB]
inhibition in vivo at 250 mg/kg (Homo sapiens [12]): 67%
inhibition in vivo at 250 mg/kg (Homo sapiens [13]): 88%

Compound: COc1cc2c(O)c3c(O)c(OC)c(O[C@@H]4O[C@H](CO)[C@@H](O)[C@H](O)[C@H]4O)cc3c(O)c2c(O)c1OC
Activity (MC3T3-E1 [14]): 115%
Activity (MC3T3-E1 [15]): 135%

IC50 [16]: 520 nM
Compound: CCOC(=O)CCc1ccc(C#N)c(OC[C@H](O)CNC(C)(C)CC2Cc3ccccc3C2)c1

IC50 (Integrin alpha-V/beta-3 [17]): 33.5 nM
Compound: N=C(N)N=C(N)Nc1cc(Cl)cc(Cl)c1

Compound: O=C(O[C@@H]1Cc2c(O)cc(O)cc2O[C@@H]1c1cc(O)c(O)c(O)c1)c1cc(O)c(O)c(O)c1 [EPIGALOCATECHIN GALLATE]
inhibition at 10 µM (Osteoclast [18]): 17%
inhibition at 20 µM (Osteoclast [19]): 32%

Compound: COc1cc([C@H]2OC[C@H](Cc3cc(OC)c(O[C@@H]4O[C@H](CO)[C@@H](O)[C@H](O)[C@H]4O)c(OC)c3)[C@@H]2CO)cc(OC)c1O [MANGLIESIDE E]
Activity (MC3T3-E1 [2]): 112%
Activity (MC3T3-E1 [3]): 118%
Activity (MC3T3-E1 [4]): 109%

Compound: C[C@@H]1O[C@@H](O[C@H]2[C@H](Oc3cc(O)c4c(c3)O[C@H](c3ccc(O)cc3)CC4=O)O[C@H](CO)[C@@H](O)[C@@H]2O)[C@H](O)[C@H](O)[C@H]1O [NARINGIN]
Activity [20]: 150%

IC50 [16]: 97 nM
Compound: CCc1cc2c(=O)n(CCc3ccccc3F)c(-c3ccccc3O)nc2cc1C
Cmax PTH (Rattus norvegicus [21]): 600 pg/mL

IC50 [23]: 1.1 nM
Compound: CCCCC[C@H](O)/C=C/[C@H]1[C@H](O)CC(=O)[C@@H]1C/C=C\CCCC(=O)O [DINOPROSTONE]
Activity (Rattus norvegicus [22]): 20.6%

Compound: CCCN1CCN(c2ccc(C(=O)NC3(C(=O)NCC#N)CCCCC3)cc2)CC1 [BALICATIB]
Activity (Homo sapiens [24]): 4.46%
inhibition in vivo at 50 mg/kg (Homo sapiens [25]): 61%
inhibition in vivo at 50 mg/kg (Homo sapiens [26]): 55%
Activity (Homo sapiens [27]): 2.25%

Compound: COc1c(O)cc2c(O)c3c(O)c(O)c(O[C@@H]4O[C@@H](C)[C@H](O)[C@@H](O)[C@H]4O)cc3c(O)c2c1O
Activity (MC3T3-E1 [28]): 111%
Activity (MC3T3-E1 [14]): 125%
